How the values were obtained:
Experiment in all cases: Kinase profiling in a biochemical assay panel (mobility shift assays and ELISA), %-inhibition at 1 μM; selectivity entropy
[1] = biological target: panel of more than 300 wild-type and mutant kinases (313 kinase panel) (Homo sapiens, UniProt Q8IY84); settings: kinase MGC42105; 1 μM
[2] = biological target: T1, panel of more than 300 wild-type and mutant kinases (313 kinase panel) (Homo sapiens, UniProt Q9UF33); settings: kinase EPHA6; compound at 1 μM
T1 sequence (Q9UF33 23-1036): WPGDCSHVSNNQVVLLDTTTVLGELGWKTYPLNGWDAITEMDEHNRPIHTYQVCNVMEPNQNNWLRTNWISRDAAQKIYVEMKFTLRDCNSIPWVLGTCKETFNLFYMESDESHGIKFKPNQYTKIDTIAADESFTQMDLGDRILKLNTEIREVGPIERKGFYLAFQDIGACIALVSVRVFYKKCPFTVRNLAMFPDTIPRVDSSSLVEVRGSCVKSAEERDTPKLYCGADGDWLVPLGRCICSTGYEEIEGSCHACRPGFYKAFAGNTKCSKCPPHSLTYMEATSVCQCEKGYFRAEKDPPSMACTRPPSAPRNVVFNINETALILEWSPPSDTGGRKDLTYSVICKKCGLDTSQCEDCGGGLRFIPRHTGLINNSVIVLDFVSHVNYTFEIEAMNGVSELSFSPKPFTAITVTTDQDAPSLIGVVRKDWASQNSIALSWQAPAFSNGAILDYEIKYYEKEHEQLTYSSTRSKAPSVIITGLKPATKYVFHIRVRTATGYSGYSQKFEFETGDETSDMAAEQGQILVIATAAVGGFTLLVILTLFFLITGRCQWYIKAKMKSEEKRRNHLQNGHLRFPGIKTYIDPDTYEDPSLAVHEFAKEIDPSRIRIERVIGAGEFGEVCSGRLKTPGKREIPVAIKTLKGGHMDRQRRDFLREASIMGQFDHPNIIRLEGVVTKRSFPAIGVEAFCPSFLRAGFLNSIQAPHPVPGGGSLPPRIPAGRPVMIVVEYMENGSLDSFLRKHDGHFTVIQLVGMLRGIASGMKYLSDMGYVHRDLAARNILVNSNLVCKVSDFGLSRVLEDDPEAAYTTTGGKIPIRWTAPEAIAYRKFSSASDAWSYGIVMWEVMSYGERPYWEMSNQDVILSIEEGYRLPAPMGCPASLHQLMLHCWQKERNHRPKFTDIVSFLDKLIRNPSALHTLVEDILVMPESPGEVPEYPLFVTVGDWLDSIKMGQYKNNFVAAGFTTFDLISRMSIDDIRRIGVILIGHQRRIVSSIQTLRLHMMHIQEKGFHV

[3] = biological target: panel of more than 300 wild-type and mutant kinases (313 kinase panel) (Homo sapiens, UniProt Q13233); settings: kinase MAP3K1; compound at 1 μM
[4] = biological target: panel of more than 300 wild-type and mutant kinases (313 kinase panel) (Homo sapiens, UniProt P10721, V654A); settings: kinase KIT(V654A); compound at 1 μM
[5] = biological target: panel of more than 300 wild-type and mutant kinases (313 kinase panel) (Homo sapiens, UniProt P22455, V550L); settings: kinase FGFR4(V550L); compound at 1 μM
[6] = biological target: T2, panel of more than 300 wild-type and mutant kinases (313 kinase panel) (Homo sapiens, UniProt Q13470); settings: kinase TNK1; 1 μM
T2 sequence (Q13470 1-666): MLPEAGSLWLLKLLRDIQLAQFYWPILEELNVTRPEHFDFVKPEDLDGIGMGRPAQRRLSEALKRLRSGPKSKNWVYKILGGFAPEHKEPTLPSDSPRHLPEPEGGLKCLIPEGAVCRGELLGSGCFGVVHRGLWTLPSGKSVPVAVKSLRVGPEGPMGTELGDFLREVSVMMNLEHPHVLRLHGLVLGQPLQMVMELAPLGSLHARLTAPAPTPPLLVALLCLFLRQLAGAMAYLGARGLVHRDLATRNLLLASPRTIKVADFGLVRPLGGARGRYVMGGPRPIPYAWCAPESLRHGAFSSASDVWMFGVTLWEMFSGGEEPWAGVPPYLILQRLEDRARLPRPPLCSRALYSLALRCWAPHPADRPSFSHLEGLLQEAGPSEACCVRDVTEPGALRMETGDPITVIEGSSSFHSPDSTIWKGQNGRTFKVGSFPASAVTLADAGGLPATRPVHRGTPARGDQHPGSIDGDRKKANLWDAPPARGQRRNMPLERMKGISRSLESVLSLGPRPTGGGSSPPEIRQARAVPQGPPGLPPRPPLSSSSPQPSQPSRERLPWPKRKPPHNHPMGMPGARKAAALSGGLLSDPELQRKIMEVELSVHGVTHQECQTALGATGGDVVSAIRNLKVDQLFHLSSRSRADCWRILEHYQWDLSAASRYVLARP

[7] = biological target: panel of more than 300 wild-type and mutant kinases (313 kinase panel) (Homo sapiens, UniProt Q9H2G2); settings: kinase SLK; 1 μM
[8] = biological target: panel of more than 300 wild-type and mutant kinases (313 kinase panel) (Homo sapiens, UniProt P07948); settings: kinase LYNa; compound at 1 μM

Sequence of panel of more than 300 wild-type and mutant kinases (313 kinase panel) (Homo sapiens, UniProt Q13233) (Q13233 whole entry, stated change not applied): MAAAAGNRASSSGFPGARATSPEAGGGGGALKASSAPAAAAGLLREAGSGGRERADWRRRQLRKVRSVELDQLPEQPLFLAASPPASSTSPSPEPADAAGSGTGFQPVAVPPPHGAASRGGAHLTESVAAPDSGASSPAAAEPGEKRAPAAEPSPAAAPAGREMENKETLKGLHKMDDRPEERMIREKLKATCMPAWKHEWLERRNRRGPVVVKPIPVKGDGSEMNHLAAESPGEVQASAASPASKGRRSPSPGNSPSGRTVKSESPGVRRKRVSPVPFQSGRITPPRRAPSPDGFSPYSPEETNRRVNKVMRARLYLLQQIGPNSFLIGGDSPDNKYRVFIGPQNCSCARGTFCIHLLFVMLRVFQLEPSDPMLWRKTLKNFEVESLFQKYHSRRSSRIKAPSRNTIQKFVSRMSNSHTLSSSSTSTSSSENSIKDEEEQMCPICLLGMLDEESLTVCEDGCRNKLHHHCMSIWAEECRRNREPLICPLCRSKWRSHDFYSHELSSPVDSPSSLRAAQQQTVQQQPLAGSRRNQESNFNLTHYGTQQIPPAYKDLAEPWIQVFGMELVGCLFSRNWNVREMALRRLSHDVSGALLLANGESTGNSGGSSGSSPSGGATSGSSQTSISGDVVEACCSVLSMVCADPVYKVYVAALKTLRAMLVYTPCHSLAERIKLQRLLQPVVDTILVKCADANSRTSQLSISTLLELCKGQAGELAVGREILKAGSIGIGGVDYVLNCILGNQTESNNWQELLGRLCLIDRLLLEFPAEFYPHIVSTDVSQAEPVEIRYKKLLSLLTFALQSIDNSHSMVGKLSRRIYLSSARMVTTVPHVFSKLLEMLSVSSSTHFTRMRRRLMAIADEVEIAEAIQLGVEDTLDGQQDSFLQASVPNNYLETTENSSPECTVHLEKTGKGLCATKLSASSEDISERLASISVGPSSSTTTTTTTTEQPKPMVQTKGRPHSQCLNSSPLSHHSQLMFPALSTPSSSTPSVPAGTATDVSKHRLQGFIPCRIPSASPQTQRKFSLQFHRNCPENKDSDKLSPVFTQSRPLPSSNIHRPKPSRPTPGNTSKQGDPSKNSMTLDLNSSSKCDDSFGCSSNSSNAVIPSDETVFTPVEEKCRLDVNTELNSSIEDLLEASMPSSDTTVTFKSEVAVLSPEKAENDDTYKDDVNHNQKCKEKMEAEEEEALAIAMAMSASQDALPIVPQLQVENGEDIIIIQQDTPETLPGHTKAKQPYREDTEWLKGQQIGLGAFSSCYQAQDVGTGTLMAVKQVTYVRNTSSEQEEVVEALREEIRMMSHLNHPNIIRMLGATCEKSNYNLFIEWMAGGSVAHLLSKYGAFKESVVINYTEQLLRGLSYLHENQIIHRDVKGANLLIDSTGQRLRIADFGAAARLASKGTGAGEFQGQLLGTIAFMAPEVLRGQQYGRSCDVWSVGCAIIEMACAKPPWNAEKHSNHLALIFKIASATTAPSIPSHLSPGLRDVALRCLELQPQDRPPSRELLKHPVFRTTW
Sequence of panel of more than 300 wild-type and mutant kinases (313 kinase panel) (Homo sapiens, UniProt P22455, V550L) (P22455 22-802 V550L): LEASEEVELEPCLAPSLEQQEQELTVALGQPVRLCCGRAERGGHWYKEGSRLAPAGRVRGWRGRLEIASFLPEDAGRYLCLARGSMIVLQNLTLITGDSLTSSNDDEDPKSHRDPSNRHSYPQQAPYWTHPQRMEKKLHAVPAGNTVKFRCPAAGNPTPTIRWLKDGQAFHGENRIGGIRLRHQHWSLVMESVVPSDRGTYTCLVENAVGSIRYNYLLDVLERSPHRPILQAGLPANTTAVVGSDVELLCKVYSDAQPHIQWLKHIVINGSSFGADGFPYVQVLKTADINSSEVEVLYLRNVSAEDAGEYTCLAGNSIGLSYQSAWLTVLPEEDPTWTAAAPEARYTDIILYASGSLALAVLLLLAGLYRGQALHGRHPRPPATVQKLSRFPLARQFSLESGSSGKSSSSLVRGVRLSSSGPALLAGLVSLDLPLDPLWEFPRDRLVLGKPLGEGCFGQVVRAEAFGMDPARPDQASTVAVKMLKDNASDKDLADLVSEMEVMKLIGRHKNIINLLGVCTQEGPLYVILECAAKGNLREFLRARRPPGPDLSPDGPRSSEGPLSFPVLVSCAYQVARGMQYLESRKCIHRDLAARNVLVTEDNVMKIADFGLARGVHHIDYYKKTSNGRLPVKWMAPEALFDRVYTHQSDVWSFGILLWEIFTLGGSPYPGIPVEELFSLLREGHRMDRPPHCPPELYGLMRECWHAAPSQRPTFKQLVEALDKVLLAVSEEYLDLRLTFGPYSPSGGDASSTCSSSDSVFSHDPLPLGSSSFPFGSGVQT
Sequence of panel of more than 300 wild-type and mutant kinases (313 kinase panel) (Homo sapiens, UniProt P10721, V654A) (P10721 26-976 V654A): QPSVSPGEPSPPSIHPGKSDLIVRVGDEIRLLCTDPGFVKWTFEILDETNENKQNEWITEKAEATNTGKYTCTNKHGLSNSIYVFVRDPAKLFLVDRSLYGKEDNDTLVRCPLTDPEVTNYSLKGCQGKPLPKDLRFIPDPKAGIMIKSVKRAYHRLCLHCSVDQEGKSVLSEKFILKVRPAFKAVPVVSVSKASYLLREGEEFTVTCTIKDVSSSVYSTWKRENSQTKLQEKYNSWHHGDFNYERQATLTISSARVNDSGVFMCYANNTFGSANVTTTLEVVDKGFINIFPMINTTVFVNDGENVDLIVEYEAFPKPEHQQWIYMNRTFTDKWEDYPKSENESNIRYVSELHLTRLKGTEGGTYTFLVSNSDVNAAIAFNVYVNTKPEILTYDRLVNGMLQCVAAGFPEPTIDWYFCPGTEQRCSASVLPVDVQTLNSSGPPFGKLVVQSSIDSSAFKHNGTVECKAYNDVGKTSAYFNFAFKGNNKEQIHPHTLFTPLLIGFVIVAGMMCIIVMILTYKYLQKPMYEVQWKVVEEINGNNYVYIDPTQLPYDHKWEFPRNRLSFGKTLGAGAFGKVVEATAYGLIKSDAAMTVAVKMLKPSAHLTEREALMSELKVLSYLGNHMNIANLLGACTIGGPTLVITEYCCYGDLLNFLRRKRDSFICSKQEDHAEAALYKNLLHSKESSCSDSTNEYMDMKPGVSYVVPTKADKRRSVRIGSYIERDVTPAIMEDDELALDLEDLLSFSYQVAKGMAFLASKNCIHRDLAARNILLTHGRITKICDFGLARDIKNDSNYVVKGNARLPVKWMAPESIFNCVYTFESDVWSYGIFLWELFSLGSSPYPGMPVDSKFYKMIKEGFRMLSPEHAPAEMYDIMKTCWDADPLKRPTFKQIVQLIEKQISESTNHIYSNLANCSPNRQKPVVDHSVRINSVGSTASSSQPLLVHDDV

SMILES	%-inhibition of MGC42105 [1] [%]	%-inhibition of EPHA6 [2] [%]	%-inhibition of MAP3K1 [3] [%]	%-inhibition of KIT(V654A) [4] [%]	%-inhibition of FGFR4(V550L) [5] [%]	%-inhibition of TNK1 [6] [%]	%-inhibition of SLK [7] [%]	%-inhibition of LYNa [8] [%]
CC(C)(C)c1nc(-c2cccc(NS(=O)(=O)c3c(F)cccc3F)c2F)c(-c2ccnc(N)n2)s1 [dabrafenib]	-8.54	88	-40	-3.17	-1.08	100	12	–
CCCS(=O)(=O)Nc1ccc(F)c(C(=O)c2c[nH]c3ncc(-c4ccc(Cl)cc4)cc23)c1F [vemurafenib]	-8	37	13	-1.8	0.45	13	43	73
Cc1nc(Nc2ncc(C(=O)Nc3c(C)cccc3Cl)s2)cc(N2CCN(CCO)CC2)n1 [dasatinib]	-0.563	–	–	–	–	4.31	–	–
C[C@@H](Oc1cc(-c2cnn(C3CCNCC3)c2)cnc1N)c1c(Cl)ccc(F)c1Cl [crizotinib]	-6	100	28	-3.75	0.45	41	–	42
Cc1ccc(C(=O)Nc2ccc(CN3CCN(C)CC3)c(C(F)(F)F)c2)cc1C#Cc1cnc2cccnn12 [ponatinib]	-5.68	103	-9	–	20	100	–	100
O=S(=O)(c1cccc2cnccc12)N1CCCNCC1 [fasudil]	3.31	6	1.37	-4	–	–	4.5	-1.61
COc1cc(Nc2c(C#N)cnc3cc(OCCCN4CCN(C)CC4)c(OC)cc23)c(Cl)cc1Cl [bosutinib]	32	102	60	8	-7	11	–	93
CO[C@H]1C[C@@H]2CC[C@@H](C)[C@@](O)(O2)C(=O)C(=O)N2CCCC[C@H]2C(=O)O[C@H]([C@H](C)C[C@@H]2CC[C@@H](OCCO)[C@H](OC)C2)CC(=O)[C@H](C)/C=C(\C)[C@@H](O)[C@@H](OC)C(=O)[C@H](C)C[C@H](C)/C=C/C=C/C=C/1C [everolimus]	-4	2.18	7	-3.52	-10	-0.4	-2.67	-1.27
